# Reference: US20250312473A1, “B7H3 ANTIBODY DRUG CONJUGATES” (BEONE MEDICINES I GMBH, priority 2022, published 2025)
# Legend:
# [1] = HIC methods to evaluate ADC hydrophobicity (DAR8 HIC retention time); type: physicochemical; conditions: HIC Method 2
# Description: HPLC analysis was carried out under the following measurement conditions: • HPLC system: Waters ACQUITY ARC HPLC System • Detector: measurement wavelength: 280 nm • Column: MABPac HIC-10, 5 μm, 4.6×10 mm (Thermo) • Column temperature: 25° C. • Mobile phase A: 1.5 M ammonium sulfate, 50 mM sodium phosphate, pH 7.0 • Mobile phase B: 50 mM sodium phosphate, pH 7.0 • Gradient program: 20% B—20% B (0 min-1 min), 0% B-0% B (1 min-35 min), 20% B-20% B (35 min-40 min) • Flow rate: 0.5 mL/min
# Sample preparation: The sample was diluted with initial mobile phase to 0.5 mg/mL.
# DAR8 HIC retention time (min) is an indication of the relative hydrophobicity of an ADC. ADCs with higher DAR8 HIC retention have a higher hydrophobic property.
# [2] = tested on: NCI-H1650; assay: ADC direct killing, 3D culture, NCI-H1650; type: cell-based, human; conditions: 6 days
# Description: The base medium for NCI-H1650 is ATCC-formulated RPMI-1640 Medium, ATCC 30-2001. To make the complete growth medium, fetal bovine serum was added to the base medium to a final concentration of 10% (Gibco, 10099-141C). The cell line was grown in a humidified 5% CO2 atmosphere at 37° C., and was regularly tested for the presence of mycoplasma with MycoAlert™ PLUS Mycoplasma Detection Kit (Lonza, LT07-710).
# (§1) NCI-H1650, NCI-H1048, MDA-MB-453 (2E3/well) or Capan-1 (4E3/well) cells were seeded into 3D-96-well plates (Corning: 4520) at 80 μl/well and incubated at 37° C., 5% CO2, overnight.
# (§2) Fresh growth medium containing the varying concentrations of ADCs was added at 40 µl/well. The cells were incubated at 37° C., 5% CO2, 6 days.
# (§3) The cell viability was detected by 3D reagent (Promega, G9683), […]. The plates were allowed to incubate at room temperature for 30 minutes to stabilize the luminescent signal. Then the plates were analyzed with a microplate reader.
# [3] = tested on: Capan-1; assay: ADC direct killing, 3D culture, Capan-1; type: cell-based, human; conditions: 6 days
# Description: Capan-1 is a cell line with epithelial morphology that was isolated from the pancreas of a person with pancreatic adenocarcinoma, and Capan-1 was purchased from ATCC. The base medium for Capan-1 is ATCC-formulated Iscove's Modified Dulbecco's Medium, Catalog No. 30-2005. To make the complete growth medium, fetal bovine serum was added to the base medium to a final concentration of 20% (Gibco, 10099-141C). The cell line was grown in a humidified 5% CO2 atmosphere at 37° C., and was regularly tested for the presence of mycoplasma with MycoAlert™ PLUS Mycoplasma Detection Kit (Lonza, LT07-710).
# as §1, §2, §3
# [4] = tested on: NCI-H1048; assay: ADC direct killing, 3D culture, NCI-H1048; type: cell-based, human; conditions: 6 days
# Description: The base medium for NCI-H1048 is ATCC-formulated DMEM:F12 Medium Catalog No. 30-2006. To make the complete growth medium, fetal bovine serum was added to the base medium to a final concentration of 10% (Gibco, 10099-141C). The cell line was grown in a humidified 5% CO2 atmosphere at 37° C., and was regularly tested for the presence of mycoplasma with MycoAlert™ PLUS Mycoplasma Detection Kit (Lonza, LT07-710).
# as §1, §2, §3
# [5] = tested on: NCI-H358:MDA-MB-453-nanoLuc = 10:1; assay: ADC bystander killing, NCI-H358/MDA-MB-453 (nano-Luc) co-culture; type: cell-based, human; conditions: co-culture 10:1, 3D, 6 days
# Description: Method: MDA-MB-453-nanoLuc cell line construction PT67-nanoLuc cells were cultured, then the cell-culture medium (containing the virus (nano-Luc gene)) was collected and filtered. MDA-MB-453 cells were seed in 6-well plates at 1E5 cells/well, and incubated at 37° C., 5% CO2, overnight. The PT67-nanoLuc cell medium and 8 ug/mli polybrene was added. The infection was repeated 3 times, every one day. Then the MDA-MB-453-nanoLuc cells were cultured with the addition of 1 mg/ml Geneticin for 5 days. The MDA-MB-453-nanoLuc cells were collected, and Nano-Glo reagent (Promega: N1120) was added to test the nano-Luc transfection efficiency.
# Method: ADC Bystander Killing NCI-H358 & MDA-MB-453-nanoLuc (10:1), or MDA-MB-453-nanoLuc cels alone were seeded into 3D-96-well plates (Corning: 4520) at 80 μl/well, and Incubated at 37° C., 5% CO2, overnight. Fresh growth medium containing the varying concentrations of ADCs was added at 40 μl/well. The cells were incubated at 37° C., 5% CO2, 6 days. The 3D-plates were centrifuged at 1500 rpm, 25° C., […], then the supernatant was discarded.
# The […] cell viability was detected by Nano-Glo reagent (Promega: N1120), 150 μl/well. The 3D-plates were allowed to incubate at room temperature for 10 minutes to stabilize the luminescent signal. Then the plates were analyzed with a microplate reader.
# [6] = tested on: H1650 xenografts (B7H3 IHC 3+); assay: ADC in vivo efficacy study, H1650 xenografts; parameters: species or system BALB/c Nude mice; conditions: for TGI (%) at T 28: day 28; for TGI (%) at T 30: day 30
# Description: Female BALB/c Nude mice were subcutaneously implanted with 3×10^6 H1650 cells per 200 μL PBS/matrigel in the right flank. After inoculation, tumor volumes were determined twice weekly in two dimensions using a caliper, and were expressed in mm^3 using the formula: V=0.5(a×b^2) where a and b are the long and short dimensions of the tumor, respectively.
# Partial regression (PR) was defined as tumor volume smaller than 50% of the starting tumor volume on the first day of dosing in three consecutive measurements and complete regression (CR) was defined as tumor volume less than 14 mm^3 in three consecutive measurements. Data is presented as mean tumor volume±standard error of the mean (SEM). Tumor growth inhibition (TGI) is calculated using formula (TGI):
# [formula] • treated t=treated tumor volume at time t • treated t0=treated tumor volume at time 0 • placebo t=placebo tumor volume at time t • placebo t0=placebo tumor volume at time 0
# [7] = tested on: H1975 xenografts (B7H3 IHC 3+); assay: ADC in vivo efficacy study, H1975 xenografts; parameters: species or system BALB/c Nude mice; conditions: study (5); 3 mpk (3 mg/kg) i.v. on day 1; day 31
substance,measurement,setting,value
"ADC3-A: ""ADC3-A is the biosimilar ADC of DS7300a (benchmark)""; antibody MABX-9001a, average DAR 3.99",HIC DAR8 RT (min) Method 2,[1],21.817 (Meth - od 2) min
same,EC50,"[2]; Table 6, NCI-H1650 (High)",8.2 nM
same,Emax (%),"[2]; Table 6, NCI-H1650 (High)",54.2%
same,EC50,"[2]; Table 7, NCI-H1650 (High)",8.2 nM
same,Emax (%),"[2]; Table 7, NCI-H1650 (High)",54.2%
same,EC50,"[2]; Table 8, NCI-H1650 (High)",10.9 nM
same,Emax (%),"[2]; Table 8, NCI-H1650 (High)",33.1%
same,EC50,"[2]; Table 9, NCI-H1650 (High)",5.7 nM
same,Emax (%),"[2]; Table 9, NCI-H1650 (High)",62.0%
same,EC50,"[2]; Table 10, NCI-H1650 (High)",7.4 nM
same,Emax (%),"[2]; Table 10, NCI-H1650 (High)",61.1%
same,EC50,"[3]; Table 6, Capan-1 (Low)",4 nM
same,Emax (%),"[3]; Table 6, Capan-1 (Low)",66.7%
same,EC50,"[3]; Table 7, Capan-1 (Low)",4 nM
same,Emax (%),"[3]; Table 7, Capan-1 (Low)",66.7%
same,EC50,"[3]; Table 8, Capan-1 (Low)",1.7 nM
same,Emax (%),"[3]; Table 8, Capan-1 (Low)",71.4%
same,EC50,"[4]; Table 9, NCI-H1048 (Low)",1.2 nM
same,Emax (%),"[4]; Table 9, NCI-H1048 (Low)",98.9%
same,EC50,"[4]; Table 10, NCI-H1048 (Low)",2.6 nM
same,Emax (%),"[4]; Table 10, NCI-H1048 (Low)",99.0%
same,EC50,[5]; Table 11,9.8 nM
same,Emax (%) bystander killing,[5]; Table 11,89.1%
same,EC50,[5]; Table 12,9.8 nM
same,Emax (%) bystander killing,[5]; Table 12,89.1%
same,EC50,[5]; Table 13,5.4 nM
same,Emax (%) bystander killing,[5]; Table 13,82.3%
same,EC50,[5]; Table 14,13 nM
same,Emax (%) bystander killing,[5]; Table 14,89.5%
same,TGI (%) at T 28,"[6]; study (1), 3 mpk (3 mg/kg) i.v. on day 1",53%
same,TGI (%) at T 28,"[6]; study (1), 10 mpk (10 mg/kg) i.v. on day 1",86%
same,TGI (%) at T 30,"[6]; study (2), 10 mpk (10 mg/kg) i.v. on day 1",85%
same,TGI (%) at T 30,"[6]; study (3), 10 mpk (10 mg/kg) i.v. on day 1",85%
same,TGI (%) at T 28,"[6]; study (4), 10 mpk (10 mg/kg) i.v. on day 1",70%
same,TGI (%) at T 31,[7],56%
